Data taken from PMC8279414, “Discovery and Synthesis of a Pyrimidine-Based Aurora Kinase Inhibitor to Reduce Levels of MYC Oncoproteins” (Journal of Medicinal Chemistry, 2021).
One block for each compound: values may come before it.

Assays:
[1] = target: T1, human Aurora A (amino acids 123–401) (Homo sapiens, UniProt O14965); test: In vitro inhibition of Aurora A kinase activity (Kinase-Glo Plus Luminescent Kinase assay, ATP consumption); type: biochemical; conditions: for IC50: mean of 2–3 independent determinations ± SD, >100 = inhibition < 50% at 100 nM
T1 construct: N-terminal truncated human Aurora A (amino acids 123–401); GST; made in house; host or cells: Sf9 insect cells
T1 sequence (O14965 123-401): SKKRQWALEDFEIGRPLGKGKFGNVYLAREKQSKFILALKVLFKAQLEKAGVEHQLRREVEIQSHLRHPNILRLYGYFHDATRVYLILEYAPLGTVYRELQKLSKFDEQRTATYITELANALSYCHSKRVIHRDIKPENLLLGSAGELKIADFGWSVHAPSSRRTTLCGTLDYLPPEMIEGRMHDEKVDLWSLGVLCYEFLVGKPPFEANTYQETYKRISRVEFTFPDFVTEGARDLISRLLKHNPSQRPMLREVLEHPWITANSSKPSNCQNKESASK
Procedure: The inhibitory potency of the newly synthesized small molecules against Aurora A was first measured in ATP consumption assays using purified Aurora A protein.
The efficacy of the compounds as inhibitors of Aurora A kinase was assessed in vitro using the Kinase-Glo Plus Luminescent Kinase assay (Promega, USA), as described previously.[45] […] The resulting mixture was incubated at 25 °C for 20 min. A 70 μL aliquot of the mixture was transferred to a black microtiter plate.

[2] = test system: cMYC in NCI-H82; test: Western blot analysis of cMYC protein level in NCI-H82 cells; type: cell-based; conditions: 24 h; for NCI-H82 cMYC, relative protein level: 1.0 μM of compound, mean ± SD, triplicate; for effect on cMYC protein level in NCI-H82: various concentrations
Procedure: (§1) Cancer cells were treated with each of the compounds at different compound concentrations. […] Each lysate was separated by sodium dodecyl sulfate polyacrylamide gel electrophoresis (SDS-PAGE), transferred to polyvinylidene fluoride (PVDF, Millipore, USA) membrane, and blotted with antibodies. […] After the blotting (0.2% casein, 1% BSA, or 5% nonfat milk), membranes were washed with blotting buffer (0.2% casein in 1× PBS or 1× TBST), and corresponding alkaline phosphatase (AP)- or horseradish peroxidase (HRP)-conjugated secondary antibodies (Sigma-Aldrich) were added. The blots were developed by chemiluminescence (PerkinElmer, USA).

[3] = test system: MYCN in SK-N-BE(2); test: Western blot analysis of MYCN protein level in SK-N-BE(2) cells; type: cell-based; conditions: 1.0 μM of compound, 24 h, mean ± SD, triplicate
Procedure: as §1

reduction of Aurora A inhibitory potency versus 13 [1]: more than 2.5 fold
IC50 [1]: > 100 nM
SMILES: CCN1CCN(c2cc(Nc3cc(C)[nH]n3)nc(N[C@H]3CCN(C(=O)c4ccc(Cl)nc4F)C3)n2)CC1 [Compound 20, (S)-(6-Chloro-2-fluoropyridin-3-yl) (3-((4-(4-ethylpiperazin-1-yl)-6-((5-methyl-1H-pyrazol-3-yl)amino)pyrimidin-2-yl)amino)pyrrolidin-1-yl)methanone]

IC50 [1]: 45.8 ± 1.4 nM
SMILES: CCN1CCN(c2cc(Nc3cc(C)[nH]n3)nc(N[C@H]3CCN(C(=O)c4cc(Cl)ccc4F)C3)n2)CC1 [Compound 12, (S)-(5-Chloro-2-fluorophenyl) (3-((4-(4-ethylpiperazin-1-yl)-6-((5-methyl-1H-pyrazol-3-yl)amino)pyrimidin-2-yl)amino)pyrrolidin-1-yl)methanone]
NCI-H82 cMYC, relative protein level [2]: 0.559 ± 0.119
SK-N-BE(2) MYCN, relative protein level [3]: 0.734 ± 0.104

IC50 [1]: > 100 nM
SMILES: CCN1CCN(c2cc(Nc3cc(C)[nH]n3)nc(N[C@H]3CCN(C(=O)c4cc(F)c(F)cc4F)C3)n2)CC1 [Compound 19, (S)-(3-((4-(4-Ethylpiperazin-1-yl)-6-((5-methyl-1H-pyrazol-3-yl)amino)pyrimidin-2-yl)amino)pyrrolidin-1-yl) (2,4,5-trifluorophenyl)methanone]

IC50 [1]: 52.2 ± 8.1 nM
SMILES: CCN1CCN(c2cc(Nc3cc(C)[nH]n3)nc(N[C@H]3CCN(C(=O)c4ccc(Cl)c(F)c4)C3)n2)CC1 [Compound 10, (S)-(4-Chloro-3-fluorophenyl) (3-((4-(4-ethylpiperazin-1-yl)-6-((5-methyl-1H-pyrazol-3-yl)amino)pyrimidin-2-yl)amino)pyrrolidin-1-yl)methanone]
NCI-H82 cMYC, relative protein level [2]: 0.715 ± 0.048
SK-N-BE(2) MYCN, relative protein level [3]: 0.578 ± 0.135

IC50 [1]: 42.9 ± 2.6 nM
SMILES: CCN1CCN(c2cc(Nc3cc(C)[nH]n3)nc(N[C@H]3CCN(C(=O)c4ccc(Cl)cc4)C3)n2)CC1 [Compound 7, (S)-(4-Chlorophenyl) (3-((4-(4-ethylpiperazin-1-yl)-6-((5-methyl-1H-pyrazol-3-yl)amino)pyrimidin-2-yl)amino)pyrrolidin-1-yl)methanone]
NCI-H82 cMYC, relative protein level [2]: 0.887 ± 0.050
SK-N-BE(2) MYCN, relative protein level [3]: 0.889 ± 0.067

IC50 [1]: 24.1 ± 7.9 nM
SMILES: CCN1CCN(c2cc(Nc3cc(C)[nH]n3)nc(N[C@H]3CCN(C(=O)c4cccc(Cl)c4F)C3)n2)CC1 [Compound 1, (S)-(3-Chloro-2-fluorophenyl) (3-((4-(4-ethylpiperazin-1-yl)-6-((5-methyl-1H-pyrazol-3-yl)amino)pyrimidin-2-yl)amino)pyrrolidin-1-yl)methanone]
NCI-H82 cMYC, relative protein level [2]: 0.781 ± 0.015

IC50 [1]: 56.7 ± 3.9 nM
SMILES: CCN1CCN(c2cc(Nc3cc(C)[nH]n3)nc(N[C@H]3CCN(C(=O)c4c(F)cc(Cl)cc4F)C3)n2)CC1 [Compound 15, (S)-(4-Chloro-2,6-difluorophenyl) (3-((4-(4-ethylpiperazin-1-yl)-6-((5-methyl-1H-pyrazol-3-yl)amino)pyrimidin-2-yl)amino)pyrrolidin-1-yl)methanone]
NCI-H82 cMYC, relative protein level [2]: 1.153 ± 0.158
SK-N-BE(2) MYCN, relative protein level [3]: 0.757 ± 0.121

IC50 [1]: 50.9 ± 2.3 nM
SMILES: CCN1CCN(c2cc(Nc3cc(C)[nH]n3)nc(N[C@H]3CCN(C(=O)c4cc(F)c(Cl)cc4F)C3)n2)CC1 [Compound 16, (S)-(4-Chloro-2,5-difluorophenyl) (3-((4-(4-ethylpiperazin-1-yl)-6-((5-methyl-1H-pyrazol-3-yl)amino)pyrimidin-2-yl)amino)pyrrolidin-1-yl)methanone]
NCI-H82 cMYC, relative protein level [2]: 0.834 ± 0.121
SK-N-BE(2) MYCN, relative protein level [3]: 0.792 ± 0.170

IC50 [1]: 64.9 ± 8.5 nM
SMILES: CCN1CCN(c2cc(Nc3cc(C)[nH]n3)nc(N[C@H]3CCN(C(=O)c4ccc(Cl)cc4C)C3)n2)CC1 [Compound 9, (S)-(4-Chloro-2-methylphenyl) (3-((4-(4-ethylpiperazin-1-yl)-6-((5-methyl-1H-pyrazol-3-yl)amino)pyrimidin-2-yl)amino)pyrrolidin-1-yl)methanone]
NCI-H82 cMYC, relative protein level [2]: 0.984 ± 0.052
SK-N-BE(2) MYCN, relative protein level [3]: 1.057 ± 0.312

IC50 [1]: 48.2 ± 9.7 nM
SMILES: CCN1CCN(c2cc(Nc3cc(C)[nH]n3)nc(N[C@H]3CCN(C(=O)c4ccc(Cl)cc4Cl)C3)n2)CC1 [Compound 8, (S)-(2,4-Dichlorophenyl) (3-((4-(4-ethylpiperazin-1-yl)-6-((5-methyl-1H-pyrazol-3-yl)amino)pyrimidin-2-yl)amino)pyrrolidin-1-yl)methanone]
NCI-H82 cMYC, relative protein level [2]: 1.175 ± 0.124
SK-N-BE(2) MYCN, relative protein level [3]: 1.000 ± 0.035

Continued, compound first:

SMILES: Cc1cc(Nc2cc(N3CCN(C)CC3)nc(N[C@H]3CCN(C(=O)c4cccc(Cl)c4F)C3)n2)n[nH]1 [Compound 2, (S)-(3-Chloro-2-fluorophenyl) (3-((4-((5-methyl-1H-pyrazol-3-yl)amino)-6-(4-methylpiperazin-1-yl)pyrimidin-2-yl)amino)pyrrolidin-1-yl)methanone]
IC50 [1]: 25.7 ± 4.9 nM

SMILES: CCN1CCN(c2cc(Nc3cc(C)[nH]n3)nc(N[C@H]3CCN(C(=O)c4ccc(C(F)(F)F)cc4F)C3)n2)CC1 [Compound 14, (S)-(3-((4-(4-Ethylpiperazin-1-yl)-6-((5-methyl-1H-pyrazol-3-yl)amino)pyrimidin-2-yl)amino)pyrrolidin-1-yl) (2-fluoro-4-(trifluoromethyl)phenyl)methanone]
IC50 [1]: > 100 nM

SMILES: CCN1CCN(c2cc(Nc3cc(C)[nH]n3)nc(N[C@H]3CCN(C(=O)c4ccccc4)C3)n2)CC1 [Compound 6, (S)-(3-((4-(4-Ethylpiperazin-1-yl)-6-((5-methyl-1H-pyrazol-3-yl)amino)pyrimidin-2-yl)amino)pyrrolidin-1-yl) (phenyl)methanone]
IC50 [1]: 29 ± 6.7 nM

SMILES: Cc1cc(Nc2cc(N3CC[C@H](N(C)C)C3)nc(N[C@H]3CCN(C(=O)c4cccc(Cl)c4F)C3)n2)n[nH]1 [Compound 4, (3-Chloro-2-fluorophenyl) ((S)-3-((4-((S)-3-(dimethylamino)pyrrolidin-1-yl)-6-((5-methyl-1H-pyrazol-3-yl)amino)pyrimidin-2-yl)amino)pyrrolidin-1-yl)methanone]
IC50 [1]: 29.8 ± 0.7 nM

SMILES: Cc1cc(Nc2cc(N3CC(N(C)C)C3)nc(N[C@H]3CCN(C(=O)c4cccc(Cl)c4F)C3)n2)n[nH]1 [Compound 3, (S)-(3-Chloro-2-fluorophenyl) (3-((4-(3-(dimethylamino)azetidin-1-yl)-6-((5-methyl-1H-pyrazol-3-yl)amino)pyrimidin-2-yl)amino)pyrrolidin-1-yl)methanone]
IC50 [1]: 29.8 ± 2.5 nM

SMILES: CCN1CCN(C(=O)Cc2ccc(Nc3ncc(F)c(Nc4ccc(C(=O)Nc5ccccc5Cl)cc4)n3)cc2)CC1 [Aurora A inhibitor I, reference compound]
effect on cMYC protein level in NCI-H82 [2]: limited effect

SMILES: CCN1CCN(c2cc(Nc3cc(C)[nH]n3)nc(N[C@H]3CCN(C(=O)c4ccc(Cl)c(C)c4)C3)n2)CC1 [Compound 11, (S)-(4-Chloro-3-methylphenyl) (3-((4-(4-ethylpiperazin-1-yl)-6-((5-methyl-1H-pyrazol-3-yl)amino)pyrimidin-2-yl)amino)pyrrolidin-1-yl)methanone]
IC50 [1]: 58.1 ± 7.4 nM
NCI-H82 cMYC, relative protein level [2]: 1.050 ± 0.060
SK-N-BE(2) MYCN, relative protein level [3]: 1.030 ± 0.256

SMILES: CCN1CCN(c2cc(Nc3cc(C)[nH]n3)nc(N[C@H]3CCN(C(=O)c4cc(F)c(Cl)c(F)c4)C3)n2)CC1 [Compound 18, (S)-(4-Chloro-3,5-difluorophenyl) (3-((4-(4-ethylpiperazin-1-yl)-6-((5-methyl-1H-pyrazol-3-yl)amino)pyrimidin-2-yl)amino)pyrrolidin-1-yl)methanone]
IC50 [1]: > 100 nM

SMILES: CCN(CCCOc1ccc2c(Nc3cc(CC(=O)Nc4cccc(F)c4)[nH]n3)ncnc2c1)CCOP(=O)(O)O [AZD1152, reference compound]
effect on cMYC protein level in NCI-H82 [2]: limited effect

SMILES: CCN1CCN(c2cc(Nc3cc(C)[nH]n3)nc(N[C@H]3CCN(S(=O)(=O)c4ccc(Cl)cc4F)C3)n2)CC1 [Compound 21, (S)-N^2-(1-((4-Chloro-2-fluorophenyl)sulfonyl)pyrrolidin-3-yl)-6-(4-ethylpiperazin-1-yl)-N^4-(5-methyl-1H-pyrazol-3-yl)pyrimidine-2,4-diamine]
reduction of Aurora A inhibitory potency versus 13 [1]: more than 2.5 fold
IC50 [1]: > 100 nM

SMILES: Cc1cc(Nc2cc(N(C)CCN(C)C)nc(N[C@H]3CCN(C(=O)c4cccc(Cl)c4F)C3)n2)n[nH]1 [Compound 5, (S)-(3-Chloro-2-fluorophenyl) (3-((4-((2-(dimethylamino)ethyl) (methyl)amino)-6-((5-methyl-1H-pyrazol-3-yl)amino)pyrimidin-2-yl)amino)pyrrolidin-1-yl)methanone]
IC50 [1]: 40.8 ± 2.8 nM
